# What was measured:
# HLF cells [1] = assay: Effect upon TGF-β1 treatment in HLF cells (western blot of protein levels); format: cell-based, human
# Method: After suspending 5×10^6 human lung fibroblast (HLF) cells in a medium, […] dispensed into a 100-mm plate, and incubated for 24 hours. […] After 24 and 48 hours of incubation, the cells were lysed with RIPA lysis buffer ([50 mM Tris]-Cl (pH, 7.4), 1% NP-40, 150 mM NaCl, 1 mM EDTA, and 1 mM phenylmethylsulfonyl fluoride (PMSF)) containing MG-132 (10 μM, proteasome inhibitor, protect the HIF-1α subunit from proteasome degradation). Next, only the supernatant was collected by centrifugation (at 13,000 rpm for 7 minutes) at 4° C., and the proteins were separated by SDS-polyacrylamide gel electrophoresis (SDS-PAGE). The separated proteins were transferred to a polyvinylidene difluoride membrane (PVDF membrane), reacted in 5% nonfat dry milk for 2 hours, and then reacted with primary antibodies at 4° C. overnight. After overnight, the proteins further reacted with secondary antibodies corresponding to the respective primary antibodies. Then, the protein band was examined, according to the manufacturer's protocol, using an ECL kit.
# The effect of novel flavone derivative II upon TGF-β1 treatment in HLF cells was evaluated in the same manner as in Example 1 above.
# The effect of novel flavone derivative III upon TGF-β1 treatment in HLF cells was evaluated in the same manner as in Example 1 above.
# A549 cells = assay: Effect upon TGF-β1 treatment in A549 cells (western blot of protein levels); format: cell-based
# Method: 3.5*10^5 A549 cells, derived from lung cancer, were suspended in a medium, dispensed into a 60-mm plate, and incubated for 48 hours. After 48 hours of incubation, each plate was treated with TGF-β1 (10 ng/ml) alone or in combination with novel flavone derivative I at varying concentrations or a predetermined concentration and/or nintedanib (NIDB), a therapeutic drug for idiopathic pulmonary fibrosis and interstitial lung disease as a positive control. […] Next, only the supernatant was collected by centrifugation (at 14,000 rpm for 10 minutes) at 4° C., and the proteins were separated by SDS-polyacrylamide gel electrophoresis (SDS-PAGE). The separated proteins were transferred to a polyvinylidene difluoride membrane (PVDF membrane), reacted in 5% nonfat dry milk for 3 hours, and then reacted with primary antibodies at 4° C. for 12 hours. After 12 hours, the proteins further reacted with secondary antibodies corresponding to the respective primary antibodies. Then, the protein band was examined, according to the manufacturer's protocol, using an ECL kit.
# The effect of novel flavone derivative II upon TGF-β1 treatment in A549 cells was evaluated in the same manner as in Example 1 above. FIGS. 20 and 21 show the results thereof.
# The effect of novel flavone derivative III upon TGF-β1 treatment in A549 cells was evaluated in the same manner as in Example 1 above.
# HLF cells [2] = assay: MTT cytotoxicity evaluation in HLF cells; format: cell-based, human; conditions: all treatment concentrations up to 10 μM, incubated for 24, 48, and 72 hours, compared to untreated control
# Method: To confirm the effect of novel flavone derivative I on cell viability, human lung fibroblasts (HLF) were used to examine cell viability with MTT [3-(4,5-dimethylthiazol-2-yl)-2,5-diphenyltetrazolium bromide]. After being suspended in a medium, HLF cells were dispensed into a 96-well plate and incubated for 24 hours. […] After incubation, all media was removed, and MTT was diluted (0.5 mg/mL) in phosphate-buffered saline (PBS). Then, 200 μL of the diluted MTT was dispensed into each well, and incubation was performed in a CO2 incubator for 4 hours. After 4 hours, the MTT solution was removed, and 160 μL of dimethyl sulfoxide (DMSO) was dispensed into each well to dissolve the formazan precipitate for 30 minutes. Next, the absorbance was measured at 570 nm.
# Cytotoxicity tests of novel flavone derivative II (Achem II) on A549 cells, HULEC-5a cells, and HLF cells were performed in the same manner as in Example 1 above, using the MTT assay. The results thereof are shown in FIGS. 17 to 19 as cell viability (%) after 24, 48, and 72 hours compared to that of the control group, the untreated sample group.
# Cytotoxicity tests of novel flavone derivative III (Achem III) on A549 cells, HULEC-5a cells, and HLF cells were performed in the same manner as in Example 1 above, using the MTT assay. The results thereof are shown in FIGS. 27 to 29 as cell viability (%) after 24, 48, and 72 hours compared to that of the control group, the untreated sample group.
# HULEC-5a cells = assay: Effect of bleomycin treatment on Hulec-5a cells (western blot of protein levels); format: cell-based, human; conditions: Hulec-5a cells treated with bleomycin, FIG. 14
# Method: 1.2×10^6 Hulec-5a cells, derived from pulmonary vessels, were suspended in a medium, dispensed into a 100-mm plate, and incubated for 24 hours. After 24 hours, each plate was treated with BLM alone or in combination with novel flavone derivative I at varying concentrations or a predetermined concentration. After a predetermined period of incubation, the cells were lysed with RIPA lysis buffer ([50 mM Tris]-Cl (pH, 7.4), 1% NP-40, 150 mM NaCl, 1 mM EDTA, and 1 mM phenylmethylsulfonyl fluoride (PMSF)) containing MG-132 (10 μM). Next, only the supernatant was collected by centrifugation (at 14,000 rpm for 10 minutes) at 4° C., and the proteins were separated by SDS-polyacrylamide gel electrophoresis (SDS-PAGE). The separated proteins were transferred to a polyvinylidene difluoride membrane (PVDF membrane), reacted in 5% nonfat dry milk for 3 hours, and then reacted with primary antibodies at 4° C. for 12 hours. After 12 hours, the proteins further reacted with secondary antibodies corresponding to the respective primary antibodies. Then, the protein band was examined, according to the manufacturer's protocol, using an ECL kit.
Structure (SMILES),"levels of fibronectin, α-SMA, HIF-1α, and COL1, increased by TGF-β1 treatment (HLF cells [1]; TGF-β1 treatment, FIG. 23)","levels of Col3, Col4, fibronectin, and NOX4 proteins, increased by TGF-β treatment (A549 cells; 10 ng/mL TGF-β1 and compound, 24 hours, FIGS. 20 and 21)",cell viability (HLF cells [2]) [%],"levels of fibrosis-related factors (fibronectin, COL4, α-SMA, and HIF-1α), increased by TGF-β1 treatment (HLF cells [1]; 5 ng/mL TGF-β1 and 1 and 3 μM compound, 24 hours, FIG. 10)","levels of pulmonary fibrosis-related factors (fibronectin, α-SMA, HIF-1α, NOX2, and NOX4) (HULEC-5a cells)","levels of fibronectin, HIF-1α, NOX2, NOX4, vimentin, p-EGFR, EGFR, and p-AKT proteins, increased by TGF-β1 treatment (A549 cells; 10 ng/mL TGF-β1 and 5 μM compound, 24 hours, FIG. 7)","levels of fibronectin, HIF-1α, and p-c-Src proteins, increased by TGF-β1 treatment (A549 cells; 10 ng/mL TGF-β1 and 5 μM compound, 48 hours, FIG. 8)"
"COc1ccc(-c2c(-c3ccc(O)c(OC)c3)oc3cc(OC)c(OC)cc3c2=O)cc1 [novel flavone derivative II, 2-(4-hydroxy-3-methoxyphenyl)-6,7-dimethoxy-3-(4-methoxyphenyl)-4H-chromen-4-one]",decreased,decreased,≥ 80,,,,
"COc1ccc(-c2c(-c3ccc(O)c(O)c3)oc3cc(OC)c(OC)cc3c2=O)cc1 [novel flavone derivative I, 2-(3,4-dihydroxyphenyl)-6,7-dimethoxy-3-(4-methoxyphenyl)-4H-chromen-4-one]",,,≥ 80,decreased,decreased,decreased,decreased

# — US20240300913A1, “FLAVONE DERIVATIVE AND USE THEREOF FOR IMPROVING PULMONARY FIBROSIS” (A-CHEMBIO CO., LTD, priority 2023, published 2024)
